The numbers were not newly measured in patent US20040147441A1, “Methods and reagents for preventing bacteremias” (priority 2002, published 2004), which cites them from elsewhere.

The test system of one series is S. aureus Strain Smith. The settings on record: Mueller-Hinton Broth.
The subject of series [1] is S. aureus (methicillin susceptible). The conditions noted are these: J. Antimicrob. Chemother. 48: 283-286, 2001.
The subject of series [2] is S. aureus (methicillin resistant).
Series [3] relates to S. pneumoniae (penicillin susceptible).
Series [4] deals with S. pneumoniae (penicillin resistant).
In series [5] the test system is E. facium (vancomycin susceptible).
Series [6] relates to E. facium (vancomycin resistant).
Series [7] relates to E. facium (multidrug resistant). The settings on record: Mobarakai et al. 1994.
For series [8], the system named is E. faecalis (vancomycin susceptible).
In series [9] the test system is E. faecalis (strains K-99-34, K-00-184, and K-00-221). The settings on record: Rhee 2002.
The next series concerns C. Difficile. The conditions noted are these: Dong et al. 1987.

≈ marks a conversion by molar mass, not a printed value.

Aspartocin: in the series on S. aureus Strain Smith, the “MIC (no CaCl2)” value is 2 µg/mL and the “MIC (with CaCl2)” value is 1 µg/mL.

For Laspartomycin, in the series on S. aureus Strain Smith, the “MIC (no CaCl2)” value was 16 µg/mL and the “MIC (with CaCl2)” value is 2 µg/mL.

Consider teicoplanin, for which the “MBC (minimal bactericidal concentration)” value in series [1] is 2.0 to 8.0 µg/mL; in series [2] it was 8.0 to 16.0 µg/mL; in [3], “MIC = <0.03; MBC = <0.03 μg/ml”; in [4], “MIC = <0.03; MBC = <0.03 μg/ml”; in the series on S. pyrogens it was 0.06 to 0.25 µg/mL; in series [5], 2.0 to 4.0 µg/mL. For the same compound, the “MBC (minimal bactericidal concentration)” value in series [6] is “MIC = >16.0; MBC = >16.0 μg/ml”; in [8], 2.0 to 4.0 µg/mL. The “MIC (minimal growth inhibitory concentration)” value in [1] was 0.5 to 4.0 µg/mL; in [2], 2.0 to 4.0 µg/mL; in [3] it was “MIC = <0.03; MBC = <0.03 μg/ml”; in series [4] it was “MIC = <0.03; MBC = <0.03 μg/ml”; in the series on S. pyrogens, 0.03 to 0.06 µg/mL; in series [5], 0.25 to 0.5 µg/mL. In addition, the “MIC (minimal growth inhibitory concentration)” value was “MIC = >16.0; MBC = >16.0 μg/ml” in [6], “MIC 8.0-1,024 μg/ml” in [7] and more than 0.25 µg/mL in series [8].

For the compound `CC(C)C[C@@H]1NC(=O)[C@@H]2CCCN2C1=O` [Cyclo(leu-pro), cyclo-(Leu-Pro)], in series [9], the “MIC (minimal growth inhibitory concentration)” value is reported as “MIC = 12.5 μg/ml”.

With Zaomycin, in the series with S. aureus Strain Smith, the “MIC (no CaCl2)” value was 10 µg/mL and the “MIC (with CaCl2)” value is 1 µg/mL.

Turning to `CN[C@H](CC(C)C)C(=O)N[C@H]1C(=O)N[C@@H](CC(N)=O)C(=O)N[C@H]2C(=O)N[C@H]3C(=O)N[C@H](C(=O)N[C@H](C(=O)O)c4cc(O)cc(O)c4-c4cc3ccc4O)[C@H](O[C@H]3C[C@](C)(N)[C@@H](O)[C@H](C)O3)c3ccc(c(Cl)c3)Oc3cc2cc(c3O[C@@H]2O[C@H](CO)[C@@H](O)[C@H](O)[C@H]2O[C@H]2C[C@](C)(NCc3ccc(-c4ccc(Cl)cc4)cc3)[C@@H](O)[C@H](C)O2)Oc2ccc(cc2Cl)[C@H]1O` [oritavancin], the “MBC (minimal bactericidal concentration)” value in series [1] is 4.0 to 8.0 µg/mL; in [2], 8.0 to 16.0 µg/mL; in series [3], “MIC = <0.03; MBC = <0.03 μg/ml”; in series [4] it was “MIC = <0.03; MBC = <0.03 μg/ml”; in the series with S. pyrogens it was 0.5 to 1.0 µg/mL; in series [5], 1.0 to 2.0 µg/mL. The “MBC (minimal bactericidal concentration)” value in [6] was 4.0 to 8.0 µg/mL; in series [8] it was 1.0 to 2.0 µg/mL. For the same compound, the “MIC (minimal growth inhibitory concentration)” value in [1] is 2.0 to 4.0 µg/mL; in series [2], 2.0 to 4.0 µg/mL; in series [3] it was “MIC = <0.03; MBC = <0.03 μg/ml”; in [4], “MIC = <0.03; MBC = <0.03 μg/ml”; in the series on S. pyrogens, 0.12 to 0.25 µg/mL; in [5], 0.12 to 0.25 µg/mL. Also, the “MIC (minimal growth inhibitory concentration)” value in [6] was 1.0 to 2.0 µg/mL; in series [8], 0.5 to 1.0 µg/mL.

In the case of `CCCCCCCCCC(=O)N[C@@H](Cc1c[nH]c2ccccc12)C(=O)N[C@H](CC(N)=O)C(=O)N[C@@H](CC(=O)O)C(=O)N[C@@H]1C(=O)NCC(=O)N[C@@H](CCCN)C(=O)N[C@@H](CC(=O)O)C(=O)N[C@H](C)C(=O)N[C@@H](CC(=O)O)C(=O)NCC(=O)N[C@H](CO)C(=O)N[C@@H]([C@H](C)CC(=O)O)C(=O)N[C@@H](CC(=O)c2ccccc2N)C(=O)O[C@@H]1C` [daptomycin], the “MIC (minimal growth inhibitory concentration)” value in series [7] is “MIC = 2.0-4.0 μg/ml”. In addition, in the series with C. Difficile, the “MIC (minimal growth inhibitory concentration)” value was “MIC = 16.0 μg/ml”. Also, in the series on S. aureus Strain Smith, the “MIC (no CaCl2)” value is 1 µg/mL (≈ 0.617 µM) and the “MIC (with CaCl2)” value is 0.5 µg/mL (≈ 0.309 µM).
